# Experimental data taken from the METLIN SMRT retention time set (Domingo-Almenara et al. 2019).
# Experiment: gradient 5% acetonitrile 3 min, to 50% in 2 min, to 85% in 15 min, held 3 min, 100 µL/min
# Conditions: column: Zorbax Extend-C18 2.1 x 50 mm; eluents: water / acetonitrile, 0.1% formic acid
# Outline: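 Each retention time is based on an adduct peak selected computationally and verified by manual inspection. Measurements used HPLC–quadrupole time-of-flight mass spectrometry in positive and negative ionization mode on mixtures of ~100 pure standards. Chromatography ran on a Zorbax Extend-C18 column (2.1 × 50 mm, 1.8 μm) at 100 μL/min with water and acetonitrile, each containing 0.1% formic acid, and dead and dwell volumes of 40 μL and 900 μL.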
row,RP-LC retention time [s],Structure (SMILES)
1,728,COc1ccc(CNC(=O)C2CCCN2S(=O)(=O)c2cc3c(cc2C)NC(=O)CO3)cc1 (configuration not stated)
2,634,CN1CCN(C(=O)Nc2ccc([N+](=O)[O-])cc2)CC1
3,611,CCCN1CCN(c2ccc(NC(=O)C(C)(C)C)c(C(=O)O)c2)CC1
4,789,Cc1ccc(S(=O)(=O)N2CCC(CCC(=O)NC3CC3)CC2)cc1
5,955,CC1(C(=O)NC2CCCC2)Cn2cnc(C(=O)NCc3cccc(Cl)c3)c2C(=O)N1C1CC1 (configuration not stated)
6,832,Cc1ccc(NC(=O)N2CCC(n3cnc4cc(F)ccc4c3=O)CC2)cc1F
7,817,Cc1ccc(CN2CCN(C3CCN(C(=O)Nc4ccc(C)c(F)c4)CC3)C(=O)C2=O)cc1
8,888,O=C(/C=C/C(=O)N1CCc2ccccc2C1)N1CCc2ccccc2C1
9,837,CSc1ncc(C(=O)N2CCN(c3ccccn3)CC2)c(-c2ccccc2)n1
10,743,O=C1N=C2C(=Nc3ccccc32)C(=O)N1CCN1CCN(c2ccccc2Cl)CC1
11,812,CN1C(=O)c2cccnc2Sc2cc(NC(=O)Cc3ccccc3Cl)ccc21
12,612,O=C1CCSc2ccc(S(=O)(=O)N3CCN(c4ccccn4)CC3)cc2N1
13,889,O=C(NCCc1cccs1)c1nnc(-c2ccc(S(=O)(=O)N3CCCC3)cc2)o1
14,727,Cc1ccc(NC(=O)C2CCN(S(=O)(=O)c3c(C)[nH]c(C)c3C(=O)N3CCCC3)CC2)cc1C
15,832,Cc1cccc(CC(=O)N2C[C@@H]3C[C@H]2C[C@@H]3NS(=O)(=O)c2ccccc2)c1
16,571,c1ccc(-n2nnnc2N2CCN(c3ccccn3)CC2)cc1
17,855,CC(=O)c1ccc(N2CCN(C(=O)CN3C(=O)C(C)(C)c4cc(C)ccc43)CC2)cc1
18,956,COc1ccc(OC)c(NC(=O)N2CCC(c3cnn(-c4ccccc4)c3)CC2)c1

row,RP-LC retention time [s],Structure (SMILES)
1,770,O=C1NC2(CCN(C(=O)NCc3ccc(F)cc3)CC2)Nc2c(Cl)cccc21
2,617,CCn1c(=O)c2c(C(=O)N3CCN(c4ccccn4)CC3)cc(=O)n(CC)c2n(C)c1=O
3,834,Cc1ccc(NC(=O)C2CCCN(S(=O)(=O)c3cn(C(C)C)cn3)C2)c(Cl)c1 (configuration not stated)
4,791,CC(C)c1nncn1C1CCN(S(=O)(=O)c2ccc(C(F)(F)F)cc2)CC1
5,797,COCc1cc(=O)n(CC(=O)Nc2ccc(F)cc2)c(N2CCOCC2)n1
6,888,COc1ccc(N2CCN(c3cc(SCC(=O)NCc4ccccc4OC)ncn3)CC2)cc1
7,666,O=S(=O)(c1ccc(F)c(F)c1)N1CCC(CN2CCCCCC2)CC1
8,1030,CCCn1cc(CCNS(=O)(=O)c2ccc3c(c2)CCCC3)c2cccnc21
9,1020,CCc1ccccc1NC(=O)C1CCCN(S(=O)(=O)c2ccc(OC)c(C)c2)C1 (configuration not stated)
10,656,COc1ccc(NC(=O)N2CCN(CC(=O)c3c(C)n(C)c4ccccc34)CC2)cc1
11,735,COCCN1CCn2cc(S(=O)(=O)NCc3ccc(F)cc3Cl)cc2C1=O
12,777,Cn1ncc(NC(=O)c2cccc(Cl)c2)c(N2CCOCC2)c1=O
13,771,CCn1c(C2CCN(S(=O)(=O)c3cccc(C)c3)C2)nc2cccnc21 (configuration not stated)
14,983,CC(=O)N1CCCSc2ccc(S(=O)(=O)N3CCN(c4ccc(Cl)cc4)CC3)cc21
15,853,COc1ccc(NC(=O)C2CCN(S(=O)(=O)c3ccc4c(c3)NC(=O)C(C)O4)CC2)cc1Cl (configuration not stated)
16,675,COC(=O)c1cc2c(=O)n(-c3ccc(NC(C)=O)cc3)ccc2nc1C
17,948,Cc1sc(-c2noc(C3CCC3)n2)cc1S(=O)(=O)N1CCC(C(=O)N2CCOCC2)CC1

# Further lines, the molecule ahead of its results:
row,Structure (SMILES),RP-LC retention time [s]
1,CCCn1cnnc1C1CCCCN1Cc1ccc(Br)o1 (configuration not stated),599
2,CCOC(=O)CNC(=O)CSc1ccc2nnc(-c3cccc(F)c3)n2n1,625
3,COc1ccc(CN2CCC3(CC2)CC(C)(O)CCO3)cc1OC (configuration not stated),583
4,O=C(c1cnn2c1CCCC2)N1CCCC1,614
5,Cc1noc(C)c1CC(=O)N1CCC(Cc2noc(C3CC3)n2)C1 (configuration not stated),748
6,CSc1nnc(-c2nn(C)c3c2CN(C(=O)c2ccccc2Br)CC3)n1C,717
7,Cc1cc(NCCN(C)C)n2nc(-c3ccccc3)c(C)c2n1,572
8,COc1ccc(C2Nn3c(C)nnc3SC2C(=O)N2CCCCCC2)cc1Br (configuration not stated),794
9,Cn1ncc2c3ccccc3n(CC(=O)NCc3cccs3)c2c1=O,764
10,Cc1nnc(-c2nnc(NC3CCCCC3)c3ccccc23)o1,688
11,Cn1c(=O)n(CC(=O)Nc2ccc(F)cc2F)c(=O)c2cnc(-c3ccccc3)nc21,1000
12,CC1CCc2c(sc3nc(CCC(=O)NCCc4c[nH]c5ccccc45)[nH]c(=O)c23)C1 (configuration not stated),898
13,COc1ccc(NC(=O)Cn2c(=O)n(-c3ccc(C)cc3)c3ncccc32)c(OC)c1,872
14,CCc1ccc(CNC(=O)C2CCN(Cc3cn(CC)c4ccc(OC)cc34)CC2)cc1,761
15,CCC(c1cccs1)N1C(=O)[C@H]2CN(S(=O)(=O)c3ccccc3C)C[C@H]2C1=O (some centres not stated),1020
16,COC(=O)C(Cc1ccccc1)NC(=O)N1CCCn2nc(-c3cccs3)cc2C1 (configuration not stated),841
17,Cc1cc(N2CCCCC2)nc(N2CCN(C(=O)CC3CCCC3)CC2)n1,738
18,O=C(NCCCn1c(-c2ccncc2)nc2cccnc21)Nc1ccc(F)cc1F,652
19,COc1cccc(C(=O)N2CCC3(CC2)NCc2ccccc2-n2ccnc23)c1,606
20,CSc1ccccc1C(=O)Nc1nc(CN2CCc3ccccc3C2)cs1,594
21,CCC(C)C(NC(=O)c1ccc(F)c(Cl)c1)C(=O)Nc1nc2ccccc2[nH]1 (configuration not stated),817
22,CCOc1ccc(-c2cc3c(=O)n(Cc4nc(-c5ccccc5OC)no4)ncn3n2)cc1,1050
23,CC(=O)N1CCC(C(=O)N2CCC3(CC2)NCc2ccccc2-n2ccnc23)CC1,564
24,Cc1nnc(C2CC3(CCN(Cc4ccccc4)CC3)CN2Cc2ccccc2)o1 (configuration not stated),636
25,COc1ccc(C)c2sc(N(CCN(C)C)C(=O)c3cnn(-c4ccccc4)c3C)nc12,632
26,Cc1ccc(-c2cn3cccnc3n2)cc1NC(=O)c1cccc(Br)c1,723

row,Structure (SMILES),RP-LC retention time [s]
1,Cn1cccc1C(=O)C(=O)Nc1ccc(F)cc1Cl,1070
2,Cc1cccc(OCc2nc(-c3ccc4nnn(C)c4c3)no2)c1,985
3,Cc1sc(NC(=O)CCC2CCCCC2)nc1-c1ccc2c(c1)NC(=O)C(C)O2 (configuration not stated),679
4,COc1cc(NC(C)=O)c2ncccc2c1Br,960
5,Cc1cc(C)n(CCC(=O)NCCn2c(C)cnc2C2CCC2)n1,577
6,O=C(NCC(F)F)c1cc2c(s1)N(CC1CC1)CCCC2,1000
7,CC1CCC(C(=O)Nc2cccc(-c3nnc4n3CCCC4)c2)CC1 (configuration not stated),756
8,COCCN1C(=O)[C@H]2CN(Cc3ccc(C(C)C)cc3)C[C@H]2C1=O,674
9,Cc1nc(C2CCOCC2)n(C2CCN(S(=O)(=O)c3c(C)c(C)cc(C)c3C)C2)n1 (configuration not stated),874
10,COc1ccc(-c2nn(CCCC(=O)NCCc3ccc(C)cc3)c(=O)c3noc(C)c23)cc1,950
11,COc1ccc(-c2noc(-c3nn(-c4ccc(C)c(C)c4)ccc3=O)n2)cc1OC,886
12,Cc1cc(C)c2c(-n3cccc3)nn(CC(=O)Nc3ccc(C(C)C)cc3)c2n1,1160
13,Cc1cc(C)cc(C(=O)N2CCCC(C(=O)NC3CCCC3)C2)c1 (configuration not stated),836
14,CCC(=O)N1CCC(Oc2nccnc2N2CCOCC2)C1 (configuration not stated),646
15,COc1cccc(-n2c(=O)c(C(=O)Nc3ccccc3F)c(O)c3cccnc32)c1,1200
16,Cc1c(C(=O)N2CCCCCC2)sc2ncn(CC(=O)N3CC(C)CC(C)C3)c(=O)c12 (configuration not stated),891
17,Cc1ccc(C)c(S(=O)(=O)Nc2ccc(-c3cn4ccc(C)nc4n3)cc2)c1,678
18,CC1=C(C(=O)N2CCOCC2)C(c2ccccc2Br)C2=C(CC(C)(C)CC2=O)N1 (configuration not stated),683
19,CCc1ccc2nc(Nc3nc(C)c4c(n3)CCCC4)nc(C)c2c1,754
20,O=c1c2cc(-c3cccs3)nn2cnn1Cc1nc(-c2ccccc2Br)no1,1050
21,C[C@@H]1C(=O)O[C@H]2C[C@@]34C5C[C@@H](C(C)(C)C)[C@]36[C@H](OC(=O)[C@@H]6O)OC4(C(=O)O5)[C@]21O (some centres not stated),709
22,CCc1cccc(NC(=O)Cn2c(N3CCOCC3)nc(CC)cc2=O)c1,791
23,O=C1[C@H]2CN(Cc3cccc(OC(F)(F)F)c3)C[C@H]2C(=O)N1Cc1ccc2c(c1)OCO2,969
24,COC(=O)c1ccc(NC(=O)N(C)CCc2noc(C3CCCCC3)n2)cc1,906
25,CCCNC(=O)c1cn(-c2cc(-c3nc(C4CC4)no3)ccn2)cn1,818
26,Cc1ccc(-n2ncc3c(=O)n(Cc4nc(-c5ccc(F)c(Br)c5)no4)cnc32)cc1,1220
